Values quoted from earlier work in patent publication US5173423A, “Process for breeding a glabrous variety of rice crop and a glabrous plant” (Sumitomo Chemical Company Limited, priority 1990, dated 1992).

Tested on: Ginbozu
Conditions: mutation breeding; induced variation: chlorosis; variety Ginbozu

SMILES: O=c1[nH]cc(Br)c(=O)[nH]1 [5-BU, 5-bromouracil]
- Frequency of occurrence of variants: 1.0%

SMILES: Nc1ncc2[nH]cnc2n1 [2-AP, 2-aminopurine]
- Frequency of occurrence of variants: 0.57%
